Results on 16 molecules are retold here after patent US7652013B2, “Inhibitors of stearoyl-CoA desaturase” (Hoffman-La Roche Inc., priority 2007, dated 2010).

What is called melting point is the temperature of the solid-liquid transition. As usually defined, the IC50 is the concentration at which inhibition is half-maximal. Lower therefore signals greater potency.

Tested on in the first series: not given
Test: not given
With `O=c1cc(N2CCN(Cc3ccc(F)cc3Cl)CC2)nc[nH]1` [Example 32, 6-[4-(2-Chloro-4-fluoro-benzyl)-piperazin-1-yl]-3H -pyrimidin-4-one], the melting point was 255 to 256 °C (dec.).
For the molecule `O=c1cc(N2CCN(Cc3cccc(F)c3)CC2)nc[nH]1` [Example 33, 6-[4-(3-Fluoro-benzyl)-piperazin-1-yl]-3H-pyrimidin-4-one], the melting point was 273 to 275 °C (dec.).
Still for that read-out and setting: the value for `O=c1cc(N2CCN(Cc3ccc(Br)cc3F)CC2)nc[nH]1` [Example 34, 6-[4-(4-Bromo-2-fluoro-benzyl)-piperazin-1-yl]-3H -pyrimidin-4-one] was 275 to 276 °C.

The target in another series is T1, SCD1 (Mus musculus, UniProt P13516).
T1 construct: Mouse liver microsomes, prepared from mice fed a high carbohydrate diet, were a source of the SCD; from tissue; host or cells: mouse liver microsomes (mice fed a high carbohydrate diet)
T1 sequence (P13516 1-355): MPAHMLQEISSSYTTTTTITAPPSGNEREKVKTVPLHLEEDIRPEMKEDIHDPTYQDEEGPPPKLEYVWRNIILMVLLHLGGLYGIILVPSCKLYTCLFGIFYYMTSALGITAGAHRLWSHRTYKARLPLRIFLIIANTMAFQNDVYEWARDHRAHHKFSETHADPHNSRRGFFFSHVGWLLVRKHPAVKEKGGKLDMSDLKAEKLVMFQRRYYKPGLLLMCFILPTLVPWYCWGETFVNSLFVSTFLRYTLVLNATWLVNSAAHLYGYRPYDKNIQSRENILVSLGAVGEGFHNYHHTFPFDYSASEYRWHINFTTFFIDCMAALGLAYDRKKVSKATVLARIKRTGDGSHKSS
Description: SCD assay: release of tritiated water from desaturation of 9,10-3H-stearoyl CoA, mouse liver microsomes. Format: biochemical. An excerpt:
Stearoyl CoA desaturase activity was monitored by a modification of the acyl carrier protein assay described by B. R. Talamo and K. Bloch in Anal. Biochem. 1968, 29, 300-304. The SCD assay monitors the release of tritiated water from the desaturation of 9,10-^3H-stearoyl CoA.
Mouse liver microsomes, prepared from mice fed a high carbohydrate diet, were a source of the SCD and cyt b5 and cyt b5 reductase, necessary accessory proteins for the coupled reaction. Reaction mixtures for compound titrations contained 50 mM Tris HCl pH 7.5, 100 mM NaCl, 0.165 mg/ml BSA, 2.4% DMSO, 1 mM NADH, 0.03% T-20, and 300 nM (9,10) ^3H-stearoyl CoA (Perkin-Elmer). Reactions were initiated upon the addition of 4 ug/ml SCD microsomes. Incubations were terminated after 25 minutes at room temperature with cold 6% TCA. After standing 10 minutes at 4 deg C., samples were centrifuged 15 minutes at 4000 rpm to pellet precipitated protein. Supernatants were added to microtiter plates containing suspensions of activated charcoal (Darco G-60, Fisher Scientific) and mixed by inversion. Plates were then centrifuged to separate ^3H—H2O product from charcoal-bound reactants. Supernatants were quantitated in a Perkin Elmer Topcount 384 after solubilization in ScintiSafe Plus 50% (Fisher Scientific).
Inhibition (%) of SCD activity by compounds was calculated according to the following formula: % Inhibition=100*[1−(CPMsample−CPMblank)/(CPMtotal−CPMblank)]
A general note: Liver microsomes are a subcellular fraction often used to study metabolism.
Regarding `O=c1cc(N2CCN(Cc3ccc(F)cc3Cl)CC2)nc[nH]1` [Example 32, 6-[4-(2-Chloro-4-fluoro-benzyl)-piperazin-1-yl]-3H -pyrimidin-4-one], the half-maximal inhibitory concentration (IC50) was not below 1100 nM.
`O=c1cc(N2CCN(Cc3cccc(F)c3)CC2)nc[nH]1` [Example 33, 6-[4-(3-Fluoro-benzyl)-piperazin-1-yl]-3H-pyrimidin-4-one] returned an IC50 not below 1100 nM.
The molecule `O=c1cc(N2CCN(Cc3ccc(Br)cc3F)CC2)nc[nH]1` [Example 34, 6-[4-(4-Bromo-2-fluoro-benzyl)-piperazin-1-yl]-3H -pyrimidin-4-one] displayed an IC50 not below 1100 nM.
In turn, `O=c1cc(N2CCN(Cc3cc(F)ccc3O)CC2)nc[nH]1` [Example 43, 6-[4-(5-Fluoro-2-hydroxy-benzyl)-piperazin-1-yl]-3H -pyrimidin-4-one] displayed an IC50 not above 1000 nM.
Still for that read-out and setting: the same measure for `O=c1cc(N2CCN(Cc3cc(F)cc(F)c3O)CC2)nc[nH]1` [Example 44, 6-[4-(3,5-Difluoro-2-hydroxy-benzyl)-piperazin-1-yl]-3H-pyrimidin-4-one]: not above 1000 nM; for `O=c1cc(N2CCN(Cc3cccc(Cl)c3O)CC2)nc[nH]1` [Example 45, 6-[4-(3-Chloro-2-hydroxy-benzyl)-piperazin-1-yl]-3H -pyrimidin-4-one]: not above 1000 nM; for `O=c1cc(N2CCN(Cc3cc(Cl)ccc3O)CC2)nc[nH]1` [Example 46, 6-[4-(5-Chloro-2-hydroxy-benzyl)-piperazin-1-yl]-3H -pyrimidin-4-one]: not above 1000 nM.
The molecule `Cc1cc(Cl)cc(CN2CCN(c3cc(=O)[nH]cn3)CC2)c1O` [Example 47, 6-[4-(5-Chloro-2-hydroxy-3-methyl-benzyl)-piperazin-1-yl]-3H-pyrimidin-4-one] yielded an IC50 not above 1000 nM.
The same measure, in the same setting: the same measure for `O=c1cc(N2CCN(Cc3cccc(Br)c3O)CC2)nc[nH]1` [Example 48, 6-[4-(3-Bromo-2-hydroxy-benzyl)-piperazin-1-yl]-3H -pyrimidin-4-one]: not above 1000 nM; for `O=c1cc(N2CCN(Cc3cc(Br)cc(Br)c3O)CC2)nc[nH]1` [Example 49, 6-[4-(3,5-Dibromo-2-hydroxy-benzyl)-piperazin-1-yl]-3H-pyrimidin-4-one]: not above 1000 nM.
On the same count and under the same terms, the same measure for `O=c1cc(N2CCN(Cc3cc(Cl)cc(Br)c3O)CC2)nc[nH]1` [Example 50, 6-[4-(3-Bromo-5-chloro-2-hydroxy-benzyl)-piperazin-1-yl]-3H-pyrimidin-4-one]: not above 1000 nM; for `O=c1cc(N2CCN(Cc3cc(I)ccc3O)CC2)nc[nH]1` [Example 51, 6-[4-(2-Hydroxy-5-iodo-benzyl)-piperazin-1-yl]-3H -pyrimidin-4-one]: not above 1000 nM.
The molecule `C=CCc1cc(CN2CCN(c3cc(=O)[nH]cn3)CC2)c(O)c(OC)c1` [Example 52, 6-[4-(5-Allyl-2-hydroxy-3-methoxy-benzyl)-piperazin-1-yl]-3H -pyrimidin-4-one] came in with an IC50 not below 1100 nM.
On the same count and under the same terms, the same measure for `COc1cc(Cl)cc(CN2CCN(c3cc(=O)[nH]cn3)CC2)c1O` [Example 53, 6-[4-(5-Chloro-2-hydroxy-3-methoxy-benzyl)-piperazin-1-yl]-3H -pyrimidin-4-one]: not above 1000 nM; for `COc1cc(I)cc(CN2CCN(c3cc(=O)[nH]cn3)CC2)c1O` [Example 54, 6-[4-(2-Hydroxy-5-iodo-3-methoxy-benzyl)-piperazin-1-yl]-3H -pyrimidin-4-one]: not above 1000 nM; for `COc1cc([N+](=O)[O-])cc(CN2CCN(c3cc(=O)[nH]cn3)CC2)c1O` [Example 55, 6-[4-(2-Hydroxy-3-methoxy-5-nitro-benzyl)-piperazin-1-yl]-3H-pyrimidin-4-one]: not below 1100 nM.
